For eleven compounds, Ki results are on record in BindingDB's records for doi:10.1021/cb900218c (Case Western Reserve University, 2010).

pKi: −log10 of the molar value.

Experiment in all cases: colorimetric ATPase assay
In test [1] the target is Complex of Sliding-clamp-loader large subunit [R175K] and Sliding-clamp-loader small subunit (Enterobacteria phage T4, UniProt P04526, R175K). The following applies: pH 7.5; 25 °C. The protocol: (§1) ATPase assay contained 10 mM Mg2+, 1uM 13/20 DNA, 500uM (r)NTP or (d)NTP, 500 nM gp45, and 500 nM gp44/62 in T4 buffer. ATPase activity was measured by monitoring the release of Pi using a malachite green assay (31) or via the hydrolysis of [gamma-32P]-ATP.

Test [2] concerns the target Complex of Sliding-clamp-loader large subunit [R175L] and Sliding-clamp-loader small subunit (Enterobacteria phage T4, UniProt P04526, R175L). The settings on record: pH 7.5; 25 °C. The procedure: as §1
Test [3] addresses T1, Sliding-clamp-loader large/small subunit (Enterobacteria phage T4, UniProt P04526+P04527).
T1 sequence (P04526 whole entry): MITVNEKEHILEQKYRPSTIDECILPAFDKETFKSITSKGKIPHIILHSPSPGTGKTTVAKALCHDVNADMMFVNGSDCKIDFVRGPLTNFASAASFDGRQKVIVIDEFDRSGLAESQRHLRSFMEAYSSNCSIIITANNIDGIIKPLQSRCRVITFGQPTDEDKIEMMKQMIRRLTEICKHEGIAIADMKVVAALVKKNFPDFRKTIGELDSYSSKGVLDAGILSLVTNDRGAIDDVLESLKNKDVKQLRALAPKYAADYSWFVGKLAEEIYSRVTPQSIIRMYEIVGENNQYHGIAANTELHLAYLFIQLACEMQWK
T1 sequence (P04527 whole entry): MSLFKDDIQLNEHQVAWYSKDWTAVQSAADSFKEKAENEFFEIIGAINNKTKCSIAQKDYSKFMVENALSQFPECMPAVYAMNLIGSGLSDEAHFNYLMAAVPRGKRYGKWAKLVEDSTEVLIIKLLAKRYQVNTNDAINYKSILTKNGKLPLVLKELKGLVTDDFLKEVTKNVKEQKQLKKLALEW
The settings on record: pH 7.5; 25 °C. The protocol: as §1

The target of test [4] is DNA polymerase III subunit tau (Escherichia coli, UniProt P06710). The following applies: pH 7.5; 37 °C.
DNA polymerase III subunit tau, sequence (P06710 whole entry): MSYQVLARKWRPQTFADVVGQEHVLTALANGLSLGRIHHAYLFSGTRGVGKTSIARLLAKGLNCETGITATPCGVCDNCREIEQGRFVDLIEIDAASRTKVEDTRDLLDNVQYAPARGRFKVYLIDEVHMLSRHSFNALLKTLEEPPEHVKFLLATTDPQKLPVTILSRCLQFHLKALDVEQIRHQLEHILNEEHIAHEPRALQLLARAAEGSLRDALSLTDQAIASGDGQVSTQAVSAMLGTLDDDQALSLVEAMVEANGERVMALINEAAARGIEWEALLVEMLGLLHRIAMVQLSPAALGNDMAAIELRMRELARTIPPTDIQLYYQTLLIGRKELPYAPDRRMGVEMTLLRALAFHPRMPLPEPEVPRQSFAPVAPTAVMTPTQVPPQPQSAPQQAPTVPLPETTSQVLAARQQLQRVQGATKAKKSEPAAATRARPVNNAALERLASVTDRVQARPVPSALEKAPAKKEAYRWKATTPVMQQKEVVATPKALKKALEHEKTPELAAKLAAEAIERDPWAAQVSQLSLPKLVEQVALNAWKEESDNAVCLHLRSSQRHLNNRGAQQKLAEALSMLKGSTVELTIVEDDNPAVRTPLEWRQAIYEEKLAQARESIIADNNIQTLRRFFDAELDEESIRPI

Complex of Sliding-clamp-loader large subunit [R175L] and Sliding-clamp-loader small subunit, sequence (P04526 as listed by the source R175L): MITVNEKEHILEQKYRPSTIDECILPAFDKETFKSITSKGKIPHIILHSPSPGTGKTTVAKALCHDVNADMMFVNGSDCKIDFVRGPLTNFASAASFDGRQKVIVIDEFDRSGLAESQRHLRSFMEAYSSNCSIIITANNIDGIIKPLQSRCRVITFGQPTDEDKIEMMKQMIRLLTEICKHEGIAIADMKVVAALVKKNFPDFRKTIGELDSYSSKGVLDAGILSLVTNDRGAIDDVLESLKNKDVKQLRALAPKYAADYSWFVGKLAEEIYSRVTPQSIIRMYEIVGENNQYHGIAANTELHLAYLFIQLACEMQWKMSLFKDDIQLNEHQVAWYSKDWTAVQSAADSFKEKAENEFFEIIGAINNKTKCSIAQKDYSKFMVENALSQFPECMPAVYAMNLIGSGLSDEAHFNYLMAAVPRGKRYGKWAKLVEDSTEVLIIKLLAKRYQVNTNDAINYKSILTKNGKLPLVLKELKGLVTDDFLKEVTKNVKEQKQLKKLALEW
Complex of Sliding-clamp-loader large subunit [R175K] and Sliding-clamp-loader small subunit, sequence (P04526 as listed by the source R175K): as the sequence (P04526 as listed by the source R175L) above, with L175K counted along it

With `O=[N+]([O-])c1cccc2c1ccn2[C@H]1C[C@H](O)[C@@H](COP(=O)(O)OP(=O)(O)OP(=O)(O)O)O1` [4-nitro-indolyl-2'-deoxyriboside triphosphate], the pKi in test [1] was 4.52; in test [2], 4.38; in test [3], 4.47; in test [4], 4.95.

With `Nc1ccc2c(ccn2[C@H]2C[C@H](O)[C@@H](COP(=O)(O)OP(=O)(O)OP(=O)(O)O)O2)c1` [5-amino-indolyl-2'-deoxyriboside triphosphate], the pKi in test [3] was below 3.70; in test [4], 4.35.

Take `O=P(O)(O)OP(=O)(O)OP(=O)(O)OC[C@H]1O[C@@H](n2ccc3cc(C4=CCCCC4)ccc32)C[C@@H]1O` [5-cyclohexene-indolyl-2'-deoxyriboside triphosphate]: the pKi in test [3] is 5.00; in test [4], 4.93.

On to `O=P(O)(O)OP(=O)(O)OP(=O)(O)OC[C@H]1O[C@@H](n2ccc3cc(C4CCCCC4)ccc32)C[C@@H]1O` [5-cyclohexyl-indolyl-2'-deoxyriboside triphosphate], for which the pKi is 4.32 in test [3] and 4.62 in test [4].

`CCc1ccc2c(ccn2[C@H]2C[C@H](O)[C@@H](COP(=O)(O)OP(=O)(O)OP(=O)(O)O)O2)c1` [5-ethyl-indolyl-2'-deoxyriboside triphosphate]: the pKi is 4.60 in test [1], 4.96 in test [2], 4.09 in test [3] and 5.05 in test [4].

`C=Cc1ccc2c(ccn2[C@H]2C[C@H](O)[C@@H](COP(=O)(O)OP(=O)(O)OP(=O)(O)O)O2)c1` [5-ethylene-indolyl-2'-deoxyriboside triphosphate]: the pKi in test [1] was 4.58; in test [2] it was 4.47; in test [3], below 3.70; in test [4], 4.52.

On to `O=P(O)(O)OP(=O)(O)OP(=O)(O)OC[C@H]1O[C@@H](n2ccc3cc(F)ccc32)C[C@@H]1O` [5-fluoro-indolyl-2'-deoxyriboside triphosphate], for which the pKi is below 3.70 in test [3] and 4.47 in test [4].

Take `O=[N+]([O-])c1ccc2c(ccn2[C@H]2C[C@H](O)[C@@H](COP(=O)(O)OP(=O)(O)OP(=O)(O)O)O2)c1` [5-nitro-indolyl-2'-deoxyriboside triphosphate]: the pKi in test [4] was 4.66.

For `O=P(O)(O)OP(=O)(O)OP(=O)(O)OC[C@H]1O[C@@H](n2ccc3cc(-c4ccccc4)ccc32)C[C@@H]1O` [5-phenyl-indolyl-2'-deoxyriboside triphosphate], the pKi in test [3] was 4.38; in test [4] it was 5.12.

For the compound `O=[N+]([O-])c1ccc2ccn([C@H]3C[C@H](O)[C@@H](COP(=O)(O)OP(=O)(O)OP(=O)(O)O)O3)c2c1` [6-nitro-indolyl-2'-deoxyriboside triphosphate], the pKi was 5.04 in test [1], 5.30 in test [2], 5.29 in test [3] and 5.09 in test [4].

On to `Nc1ncnc2c1ncn2C1OC(COP(=O)(O)OP(=O)(O)OP(O)(O)=S)[C@@H](O)[C@H]1O` (stereo partly specified) [ATP{gamma}S], for which the pKi was 4.85 in test [1], 4.48 in test [2], 4.54 in test [3] and 4.89 in test [4].
